Experimental data from PubChem BioAssay AID1963986 (Molecular Pharmacology Branch, DTP, NCI, 2024).

Test system: 171881-019-R-J1-PDC tumor spheroid viability
Test: Anticancer human tumor 171881-019-R-J1-PDC patient-derived invasive breast carcinoma cell line growth inhibition [PI3K]
Conditions: spheroids with HUVEC and MSC; for IC50: curve of first compound; for viability, T/C: stronger effect = lower value
Outline: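 Spheroid viability read-out. Co-cultures contained the tumor line plus HUVEC and human MSCs. Each agent was paired with a PI3K inhibitor (inavolisib, alpelisib, duvelisib, copanlisib) across half-log dilutions starting at clinical Cmax, or at 10 microM when Cmax was unknown.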

[1] = second compound 0.00316 µM, first compound 0.0316 µM
[2] = second compound 0.00316 µM, first compound 0.1 µM
[3] = second compound 0.00316 µM, first compound 0.316 µM
[4] = second compound 0.00316 µM, first compound 1 µM
[5] = second compound 0.00316 µM, first compound 3.16 µM
[6] = second compound 0.00316 µM, first compound 10 µM
[7] = second compound 0.01 µM, first compound 0.0316 µM
[8] = second compound 0.01 µM, first compound 0.1 µM
[9] = second compound 0.01 µM, first compound 0.316 µM
[10] = second compound 0.01 µM, first compound 1 µM
[11] = second compound 0.01 µM, first compound 3.16 µM
[12] = second compound 0.01 µM, first compound 10 µM
[13] = second compound 0.0316 µM, first compound 0.0316 µM
[14] = second compound 0.0316 µM, first compound 0.1 µM
[15] = second compound 0.0316 µM, first compound 0.316 µM
[16] = second compound 0.0316 µM, first compound 1 µM
[17] = second compound 0.0316 µM, first compound 3.16 µM
[18] = second compound 0.0316 µM, first compound 10 µM
[19] = second compound 0.1 µM, first compound 0.0316 µM
[20] = second compound 0.1 µM, first compound 0.1 µM
[21] = second compound 0.1 µM, first compound 0.316 µM
[22] = second compound 0.1 µM, first compound 1 µM
[23] = second compound 0.1 µM, first compound 3.16 µM
[24] = second compound 0.1 µM, first compound 10 µM
[25] = second compound 0.316 µM, first compound 0.0316 µM
[26] = second compound 0.316 µM, first compound 0.1 µM
[27] = second compound 0.316 µM, first compound 0.316 µM
[28] = second compound 0.316 µM, first compound 1 µM
[29] = second compound 0.316 µM, first compound 3.16 µM
[30] = second compound 0.316 µM, first compound 10 µM
[31] = second compound 1 µM, first compound 0.0316 µM
[32] = second compound 1 µM, first compound 0.1 µM
[33] = second compound 1 µM, first compound 0.316 µM
[34] = second compound 1 µM, first compound 1 µM
[35] = second compound 1 µM, first compound 3.16 µM
[36] = second compound 1 µM, first compound 10 µM
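Also: spheroids exposed to compound for 7 days before viability read.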
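For viability, T/C in this document: 100% = DMSO vehicle-treated spheroids.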

Work on `Cn1ncc(Cl)c1-c1cc(C(=O)NC(CN)Cc2cccc(F)c2)sc1Cl` (stereo unspecified) + COc1c(OCCCN2CCOCC2)ccc2c3n(c(=NC(=O)c4cnc(N)nc4)nc12)CCN3 yielded an IC50 (second compound 0.00316 µM) of 74.5 nM, an IC50 (second compound 0.01 µM) of under 31.6 nM and an IC50 (second compound 0.0316 µM) of under 31.6 nM. For the same compound, the IC50 (second compound 0.1 µM) was under 31.6 nM, the IC50 (second compound 0.316 µM) was under 31.6 nM and the IC50 (second compound 1 µM) was under 31.6 nM. It also gave a viability, T/C [1] of 63.8%, a viability, T/C [2] of 46.4% and a viability, T/C [3] of 27.6%. The viability, T/C [4] was 17.7%, the viability, T/C [5] was 11.5% and the viability, T/C [6] was 3.72%. The viability, T/C [7] was 48.2%, the viability, T/C [8] was 37.2% and the viability, T/C [9] was 23.7%. For the same compound, the viability, T/C [10] was 16.4%, the viability, T/C [11] was 9.82% and the viability, T/C [12] was 4.66%. For the same compound, the viability, T/C [13] was 24.1%, the viability, T/C [14] was 22% and the viability, T/C [15] was 15.6%. The viability, T/C [16] was 11.3%, the viability, T/C [17] was 7.85% and the viability, T/C [18] was 4.52%. It also gave a viability, T/C [19] of 8.56%, a viability, T/C [20] of 6.38% and a viability, T/C [21] of 6.32%. For the same compound, the viability, T/C [22] was 5.69%, the viability, T/C [23] was 4.46% and the viability, T/C [24] was 2.26%. For the same compound, the viability, T/C [25] was 2.05%, the viability, T/C [26] was 1.87% and the viability, T/C [27] was 1.74%. It also gave a viability, T/C [28] of 1.64%, a viability, T/C [29] of 1.47% and a viability, T/C [30] of 1.92%. It also gave a viability, T/C [31] of 0.97%, a viability, T/C [32] of 1.14% and a viability, T/C [33] of 1.37%. For the same compound, the viability, T/C [34] was 0.72%, the viability, T/C [35] was 0.77% and the viability, T/C [36] was 0.22%.
In the case of `CCCS(=O)(=O)Nc1ccc(F)c(C(=O)c2c[nH]c3ncc(-c4ccc(Cl)cc4)cc23)c1F` + CC(Nc1ccc2c(c1)OCCn1cc(N3C(=O)OCC3C(F)F)nc1-2)C(N)=O, the IC50 (second compound 0.00316 µM) is reported as 5810 nM, the IC50 (second compound 0.01 µM) is reported as 5750 nM and the IC50 (second compound 0.0316 µM) is reported as 4850 nM. It also gave an IC50 (second compound 0.1 µM) of 3480 nM, an IC50 (second compound 0.316 µM) of under 31.6 nM and an IC50 (second compound 1 µM) of under 31.6 nM. For the same compound, the viability, T/C [1] was 92.3%, the viability, T/C [2] was 109% and the viability, T/C [3] was 92.9%. The viability, T/C [4] was 109%, the viability, T/C [5] was 94.6% and the viability, T/C [6] was 10%. For the same compound, the viability, T/C [7] was 78.4%, the viability, T/C [8] was 87.2% and the viability, T/C [9] was 101%. The viability, T/C [10] was 102%, the viability, T/C [11] was 92.6% and the viability, T/C [12] was 11.1%. The viability, T/C [13] was 63.3%, the viability, T/C [14] was 64.9% and the viability, T/C [15] was 81.9%. It also gave a viability, T/C [16] of 83.3%, a viability, T/C [17] of 83% and a viability, T/C [18] of 7.38%. It also gave a viability, T/C [19] of 46.7%, a viability, T/C [20] of 51.4% and a viability, T/C [21] of 53.9%. The viability, T/C [22] was 57%, the viability, T/C [23] was 61.7% and the viability, T/C [24] was 5.11%. It also gave a viability, T/C [25] of 32.5%, a viability, T/C [26] of 32.4% and a viability, T/C [27] of 42%. It also gave a viability, T/C [28] of 44.7%, a viability, T/C [29] of 42.3% and a viability, T/C [30] of 5%. The viability, T/C [31] was 21%, the viability, T/C [32] was 28.4% and the viability, T/C [33] was 28.4%. The viability, T/C [34] was 33.5%, the viability, T/C [35] was 35.6% and the viability, T/C [36] was 3.55%.
`CC(C)NCC(C(=O)N1CCN(c2ncnc3c2C(C)CC3O)CC1)c1ccc(Cl)cc1` (stereo unspecified) + CC(Nc1ncnc2nc[nH]c12)c1cc2cccc(Cl)c2c(=O)n1-c1ccccc1 gave an IC50 (second compound 0.0316 µM) of 388 nM, an IC50 (second compound 0.1 µM) of 293 nM and an IC50 (second compound 0.316 µM) of 393 nM. It also gave an IC50 (second compound 1 µM) of 401 nM, an IC50 (second compound 3.16 µM) of 357 nM and an IC50 (second compound 10 µM) of 150 nM. It also gave a viability, T/C [13] of 96.1%, a viability, T/C [14] of 83.8% and a viability, T/C [15] of 54.5%. The viability, T/C [16] was 27.6%, the viability, T/C [17] was 14.6% and the viability, T/C [18] was 11.4%. For the same compound, the viability, T/C [19] was 97.6%, the viability, T/C [20] was 73.1% and the viability, T/C [21] was 48.4%. For the same compound, the viability, T/C [22] was 29.4%, the viability, T/C [23] was 14.6% and the viability, T/C [24] was 10.1%. It also gave a viability, T/C [25] of 80%, a viability, T/C [26] of 82.8% and a viability, T/C [27] of 50.9%. For the same compound, the viability, T/C [28] was 30%, the viability, T/C [29] was 14.4% and the viability, T/C [30] was 9.02%. The viability, T/C [31] was 93.2%, the viability, T/C [32] was 81% and the viability, T/C [33] was 55.9%. The viability, T/C [34] was 28%, the viability, T/C [35] was 12.5% and the viability, T/C [36] was 8.65%. It also gave a viability, T/C (second compound 3.16 µM, first compound 0.0316 µM) of 78.6%, a viability, T/C (second compound 3.16 µM, first compound 0.1 µM) of 75.1% and a viability, T/C (second compound 3.16 µM, first compound 0.316 µM) of 51.2%. The viability, T/C (second compound 3.16 µM, first compound 1 µM) was 27.1%, the viability, T/C (second compound 3.16 µM, first compound 3.16 µM) was 11.5% and the viability, T/C (second compound 3.16 µM, first compound 10 µM) was 8.08%. The viability, T/C (second compound 10 µM, first compound 0.0316 µM) was 57%, the viability, T/C (second compound 10 µM, first compound 0.1 µM) was 53.6% and the viability, T/C (second compound 10 µM, first compound 0.316 µM) was 43%. For the same compound, the viability, T/C (second compound 10 µM, first compound 1 µM) was 21.6%, the viability, T/C (second compound 10 µM, first compound 3.16 µM) was 9.56% and the viability, T/C (second compound 10 µM, first compound 10 µM) was 5.96%.
